Source: PMC11363342 (ACS Central Science, 2024)

System: SARS-CoV-2 variants Alpha, Beta, Delta, Omicron BA.1, and XBB.1.5
Format: cell-based

O=S1(=O)O[C@@H]2[C@H](O)[C@@H](O)[C@H](O)[C@@H](CO)[C@@H]2O1 [Compound 11, 1,6-epi-cyclophellitol cyclosulfate]
reduction in infectious virus titer, SARS-CoV-2 variants: ~100 fold
